Results as given in publication PMC3447774, “Genes Encoding Cher-TPR Fusion Proteins Are Predominantly Found in Gene Clusters Encoding Chemosensory Pathways with Alternative Cellular Functions” (PLoS ONE, 2012).

How the values were obtained:
Experiment in all cases: isothermal titration calorimetry
Type in all cases: binding
WspC-Ppshort = target: T1, WspC-Ppshort (Pseudomonas putida, UniProt Q88MS8)
T1 construct: amino acids 1-240, CheR domain only, lacks linker and TPR domain
Text: isothermal titration calorimetry on WspC-Ppshort

WspC-Pp = target: T2, WspC-Pp (Pseudomonas putida, UniProt Q88MS8)
T2 construct: full-length CheR-linker-TPR protein; monomer
Text: isothermal titration calorimetry on WspC-Pp

WspC-Ppmiddle = target: T3, WspC-Ppmiddle (Pseudomonas putida, UniProt Q88MS8)
T3 construct: amino acids 1-355, CheR domain plus linker, lacks TPR domain
Text: isothermal titration calorimetry on WspC-Ppmiddle

T1 sequence (Q88MS8 1-283): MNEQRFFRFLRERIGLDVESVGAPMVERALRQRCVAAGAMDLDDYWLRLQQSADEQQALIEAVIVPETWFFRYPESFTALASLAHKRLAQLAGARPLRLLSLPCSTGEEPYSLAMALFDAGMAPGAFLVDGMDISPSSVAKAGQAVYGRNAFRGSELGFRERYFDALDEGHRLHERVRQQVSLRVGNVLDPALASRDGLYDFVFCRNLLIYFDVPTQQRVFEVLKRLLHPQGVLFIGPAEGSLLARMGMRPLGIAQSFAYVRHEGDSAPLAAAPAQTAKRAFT
T3 sequence (Q88MS8 1-355): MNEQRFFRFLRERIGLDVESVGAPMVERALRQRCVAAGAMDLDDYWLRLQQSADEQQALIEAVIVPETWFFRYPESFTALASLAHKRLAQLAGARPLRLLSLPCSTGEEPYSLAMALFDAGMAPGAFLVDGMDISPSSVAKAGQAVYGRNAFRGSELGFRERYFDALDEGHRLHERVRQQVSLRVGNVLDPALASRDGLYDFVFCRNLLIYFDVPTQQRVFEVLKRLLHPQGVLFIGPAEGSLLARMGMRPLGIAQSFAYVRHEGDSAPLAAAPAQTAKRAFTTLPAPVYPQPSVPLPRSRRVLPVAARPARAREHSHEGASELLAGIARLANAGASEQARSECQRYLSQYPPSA
T2 sequence (Q88MS8 whole entry): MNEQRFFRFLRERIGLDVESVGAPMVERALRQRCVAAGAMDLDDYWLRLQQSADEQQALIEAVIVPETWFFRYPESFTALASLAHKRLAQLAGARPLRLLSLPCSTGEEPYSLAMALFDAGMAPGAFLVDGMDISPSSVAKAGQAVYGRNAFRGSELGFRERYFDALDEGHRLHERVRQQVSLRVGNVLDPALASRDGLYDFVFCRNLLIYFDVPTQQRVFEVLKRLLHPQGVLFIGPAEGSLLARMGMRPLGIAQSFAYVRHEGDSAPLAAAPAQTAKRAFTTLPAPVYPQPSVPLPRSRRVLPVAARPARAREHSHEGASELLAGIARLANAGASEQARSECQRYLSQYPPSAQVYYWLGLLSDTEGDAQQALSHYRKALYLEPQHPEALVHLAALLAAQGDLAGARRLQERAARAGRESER

SMILES	Kd (WspC-Ppshort) [µM]	Kd (WspC-Pp) [µM]	Kd (WspC-Ppmiddle) [µM]
Nc1ncnc2c1ncn2[C@@H]1O[C@H](CSCC[C@H](N)C(=O)O)[C@@H](O)[C@H]1O [S-adenosylhomocysteine]	2 ± 0.1	1.7 ± 0.1	1.6 ± 0.1
C[S+](CC[C@H](N)C(=O)O)C[C@H]1O[C@@H](n2cnc3c(N)ncnc32)[C@H](O)[C@@H]1O (stereo partly drawn) [S-adenosylmethionine]	41 ± 4	43 ± 2	35 ± 2
